Patent publication US9532938B2, “Esters of O-substituted hydroxy carboxylic acids and preparations thereof” (Eastman Chemical Company, priority 2010, dated 2017)

Target: T1, Novozym 435 (Candida antarctica lipase B immobilized on acrylic resin) (Moesziomyces antarcticus, UniProt P41365)
T1 construct: purchased
Assay: Enzymatic hydrolysis of oleyl glycolyl retinoate with Novozym 435
Format: in vitro ADME
Settings: toluene / pH 7 phosphate buffer
Procedure: Oleyl glycolyl retinoate (50 mg; 0.082 mmol) was dissolved in 1 mL of toluene. pH 7 Phosphate buffer (1 mL) was added followed by Novozym 435 (50 mg). The mixture was stirred for 1 h at ambient temperature to afford 5% hydrolysis according to HPLC analysis.

T1 sequence (P41365 26-342): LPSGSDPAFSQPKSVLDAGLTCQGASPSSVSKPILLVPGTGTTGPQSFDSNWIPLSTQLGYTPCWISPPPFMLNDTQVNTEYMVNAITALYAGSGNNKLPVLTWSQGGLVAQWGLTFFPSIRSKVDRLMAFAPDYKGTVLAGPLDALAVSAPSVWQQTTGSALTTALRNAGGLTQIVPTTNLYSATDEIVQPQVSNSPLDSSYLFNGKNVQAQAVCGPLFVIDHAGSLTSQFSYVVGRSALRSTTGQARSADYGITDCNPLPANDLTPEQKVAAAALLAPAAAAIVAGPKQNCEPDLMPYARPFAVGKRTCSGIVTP

`CCCCCCCC/C=C\CCCCCCCCOC(=O)COC(=O)/C=C(C)/C=C/C=C(C)/C=C/C1=C(C)CCCC1(C)C` [Oleyl glycolyl retinoate, Oleyl Glycolyl Retinoate] was tested, and the “hydrolysis according to HPLC analysis” value (Novozym 435 (50 mg), stirred 1 h at ambient temperature) was 5% and the “hydrolysis, control reaction without enzyme” value (no enzyme, ambient temperature) was “no hydrolysis”.
